Source: patent US10278971B2, “Fluorocyclopentenylcytosine methods of use” (Rexahn Pharmaceuticals, Inc., priority 2015, dated 2019)

Key:
SW1573 = experiment: Cell cycle distribution and apoptosis by flow cytometry (PI, Annexin V); assay type: cell-based, human
Protocol: The effect of RX-3117 on cell cycle regulation and cell death in human non-small cell lung cancer (NSCLC) cell lines A549 (adenocarcinoma), SW1573 (alveolar carcinoma) and SW1573/G- (SW1573 cell line resistant to gemcitabine) and H460 (large cell carcinoma) was assessed. The A549 and H460 cell lines were obtained from American Type Culture Collection (Manassas, Va., USA). The SW1573 cell line, obtained from Dr. Johan van Rijn (see Keiser et al., Cancer Research, 49:2988-2993 (1989)), also served as the parental cell line for SW1573/G-. A549, SW1573, and SW1573/G- and H460 were kept in exponential growth in T25 flasks (Greiner Bio-One GmbH, Frickenhausen, Germany) and cultured in Dulbecco's minimal essential medium (DMEM) or RPMI 1640 (A549) supplemented with 10% heat-inactivated fetal bovine serum (FBS) 1% streptomycin and penicillin 20 mM HEPES and maintained in 37° C. water saturated atmospheres of 5% CO2. For the cell cycle distribution, 1.5×10^5 cells were seeded in a T25 flask (Greiner Bio-One GmbH) and cultured for 72 hours after which 1 μM of RX-3117 was added and incubated for 24 hours. The cells were then harvested. After the treatment, the medium was collected in a 15 ml tube (Greiner Bio-One GmbH). The cells were washed with ice cold PBS and trypsinized (Lonza) at 37° C. The collected medium was used to inactivate trypsin of the corresponding sample and again collected in the 15 ml tube. The cells were centrifuged with the standard centrifuge program, 5 minutes at 4° C. and […]. The medium was removed, pellet washed with 1 ml PBS/0.01% BSA and centrifuged. After removal of the supernatant, the cells were fixed with 1 ml 70% ethanol and incubated at −20° C. for at least 24 hours. Subsequently, the cells were centrifuged, washed with 1 ml PBS/0.1% BSA and transferred to a FALCON FACS tube (BD, Franklin Lakes, N.J., USA). The cells were centrifuged, and the supernatant was removed followed by the addition of 0.5 μg propidium iodide (PI) (Sigma, St. Louis, Mo., USA), 0.1% trisodium citrate (Riedel-de Haen, Sigma-Aldrich Laborchemikalien GmbH, St. Louis, Mo., USA), 0.1% Triton X-100™ (Merck) and 0.1 mg/ml RNase (Sigma) (PI solution) to the samples. Subsequently, for at least 15 minutes, the cells were incubated on ice with the PI solution to stain the DNA before starting the analysis. The cells stained with the PI solution were analyzed by FACSCalibur™ (BD Biosciences, Mount View, Calif., USA). Data was analyzed with CellQuest™ Pro software.
Cell cycle distribution and apoptosis were analyzed by plating cells in flat bottom 6 well plates (Greiner Bio-One GmbH, Frickenhausen, Germany) at the density of 5,000 cells and allowed to attach for 24 h. Thereafter cytotoxic concentrations of 5×IC50 were added. The exposure time was 24 h and 48 h and for comparison the control group was included. At each time point total amount of adherent and floating cells were harvested in round-bottom FALCON tubes (BD, Franklin Lakes, N.J., USA). After centrifugation, cell pellets were resuspended in 1.0 ml propidium iodide (PI) solution (50 ug/ml PI, 0.1% sodium citrate 0.1% Triton X-100, 0.1 mg/ml ribonuclease A) or 10 ul Annexin V (cat#31490014, Immunotools) and left on ice for 30 minutes. Subsequently, samples were analyzed using FACSCalibur (BD Biosciences, Mount View, Calif., USA). For data analysis CELLQuest™ software was carried out, using gates on DNA histograms to estimate the amount of cells in sub-G1 phase (apoptotic cells).

[1] = system: advanced malignant tumors; experiment: Efficacy in subjects with advanced malignant tumors; assay type: in vivo, human; conditions: 48 subjects enrolled
Protocol: The efficacy, safety and tolerability of RX-3117 at various doses and frequencies were evaluated (see Example 4, above). Subjects with advanced malignant tumors were administered capsules containing RX-3117 at various doses, from TIWK to 7 times per week for 3 weeks with 1 week off during each 4-week cycle. Dose escalation begins with an accelerated design treating 1 subject per dose (Simon et al., J. Natl. Cancer Inst., 89(15):1138-47 (1997) followed by a standard 3+3 design using a modified Fibonacci sequence after the occurrence of a single related Grade 2 or greater adverse event. Table 4 (above) summarizes the dosing schedule.

A549 spheroids = experiment: Spheroid assay, radiosensitizing effect; assay type: cell-based, human
Protocol: (§1) The NSCLC cell lines A549 and SW1573 were plated in low attachment 24 well plates (Corning Incorporated, Corning, N.Y.) at a density of 100,000 cells/well and allowed to form spheroids. After three days, single spheroids were transferred to new 24 well low attachment plates (one spheroid/well). Immediately after transfer treatment was started, for A549 and SW1573 cells 1 μM RX-3117 was combined with fractionated 2 Gy irradiation (5 days single 2 Gy dose). Pictures were taken on day 0 (before irradiation) and after 3, 6, 9, and 15 days using a phase contrast microscope (LeicaDMI300B Universal Grab 6.3 software, Digital Cell Imaging Labs). The measurements were taken by ImageJ software (ImageJ 1.45s, Wayne Rasband, National Institutes of Health, Bethesda, Md.) for spheroid volume calculation (V=4/3π(D/2)^3) as described earlier by Galvani et al. (Galvani E, Giovannetti E, Saccani F, Cavazzoni A, Leon L G, Dekker H, Alfieri R, Carmi C, Mor M, Ardizzoni A, Petronini P G and Peters G J: Molecular mechanisms underlying the antitumor activity of 3-aminopropanamide irreversible inhibitors of the epidermal growth factor receptor in non-small cell lung cancer. Neoplasia 15: 61-72, 2013).

SW1573 spheroids = experiment: Spheroid assay, radiosensitizing effect; assay type: cell-based, human; conditions: SW1573 spheres
Protocol: as §1

DNMT1 = experiment: DNMT enzyme activity in isolated nuclei (DNA methyltransferase assay kit); assay type: cell-based, human; conditions: A2780 nuclear extracts, 1 μM, 24 hr
Protocol: DNMT1 protein expression was measured by Western Blotting after exposure to RX-3117 for 24 or 48 hr. DNMT1 RNA expression was measured by real-time PCR after 24 and 48 hr exposure to RX-3117. DNMT enzyme activity was measured in isolated nuclei after exposure 1 μM RX-3117 or 5 μM aza-CdR using a DNA methyltransferase assay kit provided by EpiGentek using the ability of a CpG dinding domain to bind to methylated DNA. In A549 cells the effect of 5 μM RX-3117 on overall methylation was measured with a specific antibody against 5-methyl-cytosine. Bands on Western blots were visualized using appropriate InfraRedDye using an Odyssey InfraRed imager.

Nc1ccn([C@@H]2C(F)=C(CO)[C@@H](O)[C@H]2O)c(=O)n1 [RX-3117, 4-amino-1-((1S,4R,5S)-2-fluoro-4,5-dihydroxy-3-hydroxymethyl-cyclopent-2-enyl)-1H-pyrimidin-2-one]
accumulation of cells in the G1 phase (SW1573; SW1573, 1 μM, 24 hour exposure): induced accumulation | increased accumulation of cells in the G1 phase (SW1573; SW1573, 1 μM, 24 hour exposure): 20-40% | apoptosis, Annexin V stained cells (SW1573; SW1573, 10 μM, 24, 48, 72 and 96 hour exposure): induced apoptosis | apoptosis, PI stained cells in the sub-G1 phase (SW1573; SW1573, 5×IC50, 24 and 48 hour exposure): induced apoptosis | accumulation of cells in the S-phase (SW1573; SW1573, 5×IC50, 24 and 48 hours): induced the accumulation | cell kill (SW1573; SW1573, 24 hour exposure): No cell kill | cell kill (SW1573; SW1573, 48 hour exposure): 15% | subjects with stable disease for 1 to 10 cycles ([1]; various oral doses and frequencies): Seventeen | subjects with tumor burden reduction ([1]; pancreatic, breast and mesothelioma cancers): 3 subjects | spheroid volume growth, combination with irradiation (A549 spheroids; A549, 1 μM plus 5 days irradiation with 2 Gy): enhanced the effect | spheroid volume growth, RX-3117 alone (A549 spheroids; A549, 1 μM, 15 days): only a small effect | spheroid volume, combination with radiotherapy (SW1573 spheroids; 1 μM plus 2 Gy 5 days): the effect was enhanced with the combination | spheroid volume, RX-3117 alone (SW1573 spheroids; 1 μM, 15 days): highly affected | inhibition of DNMT1 activity (DNMT1): 32%
